{"source": "patent US20040116351A1", "about": "“Method for enhancing the natural reward system for exercise” (FAST BALANCE, INC., priority 2002, published 2004)", "origin": "cited, not measured here", "conditions": "administered PEA"}
{"compound": "NCCc1ccccc1", "note": "[PEA, phenylethylamine]", "values": [{"measurement": "Time PEA lasts in the body", "value": "≤ 10", "unit": "min"}]}
